Data reported in patent US12493040B2, “Cancer detection method using sense of smell of nematode” (HIROTSU BIO SCIENCE INC., priority 2013, dated 2025).

Tested on: RNAi-treated eri-1 (mg366) nematodes
Test: RNAi screening of olfactory receptor genes: chemotaxis assay of RNAi-treated nematodes to odorants
Format: in vivo, Caenorhabditis elegans
Details: low concentration of attractant
Method in brief: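 eri-1 (mg366) worms knocked down by feeding RNAi (Ahringer library) on IPTG/ampicillin NGM plates with E. coli for 4 days, then tested for chemotaxis, 30–50 worms per assay. Odorants at 1 μl of 10^−3 or 10^−4 dilution, or 1 and 5 μl undiluted. Hits scored by z score, thresholds ±1.96 (P<0.05) or ±0.96.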

**Q.** What does the source list for `c1cnccn1` [pyrazine]?
**A.** chemotaxis index (Control nematodes): 0.49 ± 0.019; chemotaxis index (srh-10 RNAi-treated nematodes): 0.67; chemotaxis index (srh-11 RNAi-treated nematodes): 0.87; chemotaxis index (srh-15 RNAi-treated nematodes): 0.78; chemotaxis index (srh-16 RNAi-treated nematodes): 0.82; chemotaxis index (srh-18 RNAi-treated nematodes): 0.73; chemotaxis index (srh-19 RNAi-treated nematodes): 0.33; chemotaxis index (srh-22 RNAi-treated nematodes): 0.82; chemotaxis index (srh-23 RNAi-treated nematodes): 0.43; chemotaxis index (srh-24 RNAi-treated nematodes): 0.57; chemotaxis index (srh-25 RNAi-treated nematodes): 0.64; chemotaxis index (srh-27 RNAi-treated nematodes): 0.32; chemotaxis index (srh-28 RNAi-treated nematodes): 0.23; chemotaxis index (srh-36 RNAi-treated nematodes): 0.53; chemotaxis index (srh-37 RNAi-treated nematodes): 0.88; chemotaxis index (srh-39 RNAi-treated nematodes): 0.11; chemotaxis index (srh-40 RNAi-treated nematodes): 0.51; chemotaxis index (srh-41 RNAi-treated nematodes): 0.71; chemotaxis index (srh-44 RNAi-treated nematodes): 0.44; chemotaxis index (srh-45 RNAi-treated nematodes): 0.74; chemotaxis index (srh-46 RNAi-treated nematodes): −0.04; chemotaxis index (srh-48 RNAi-treated nematodes): 0.15; chemotaxis index (srh-49 RNAi-treated nematodes): 0.52; chemotaxis index (srh-50 RNAi-treated nematodes): 0.83; chemotaxis index (srh-51 RNAi-treated nematodes): 0.31; chemotaxis index (srh-52 RNAi-treated nematodes): 0.55; chemotaxis index (srh-55 RNAi-treated nematodes): 0.56; chemotaxis index (srh-59 RNAi-treated nematodes): 0.04; chemotaxis index (srh-60 RNAi-treated nematodes): 0.52; chemotaxis index (srh-61 RNAi-treated nematodes): 0.27; chemotaxis index (srh-67 RNAi-treated nematodes): 0.39; chemotaxis index (srh-68 RNAi-treated nematodes): 0.36; chemotaxis index (srh-69 RNAi-treated nematodes): 0.35; chemotaxis index (srh-70 RNAi-treated nematodes): 0.41; chemotaxis index (srh-71 RNAi-treated nematodes): 0.56; chemotaxis index (srh-72 RNAi-treated nematodes): 0.50; chemotaxis index (srh-74 RNAi-treated nematodes): 0.26; chemotaxis index (srh-75 RNAi-treated nematodes): 0.71; chemotaxis index (srh-77 RNAi-treated nematodes): 0.44; chemotaxis index (srh-79 RNAi-treated nematodes): 0.12; chemotaxis index (srh-80 RNAi-treated nematodes): 0.40; chemotaxis index (srh-82 RNAi-treated nematodes): 0.31; chemotaxis index (srh-83 RNAi-treated nematodes): 0.38; chemotaxis index (srh-97 RNAi-treated nematodes): 0.66; chemotaxis index (srh-99 RNAi-treated nematodes): 0.29; chemotaxis index (srh-100 RNAi-treated nematodes): 0.30; chemotaxis index (srh-104 RNAi-treated nematodes): −0.18; chemotaxis index (srh-105 RNAi-treated nematodes): 0.32; chemotaxis index (srh-109 RNAi-treated nematodes): 0.32; chemotaxis index (srh-111 RNAi-treated nematodes): −0.23; chemotaxis index (srh-113 RNAi-treated nematodes): 0.35; chemotaxis index (srh-115 RNAi-treated nematodes): 0.19; chemotaxis index (srh-116 RNAi-treated nematodes): 0.35; chemotaxis index (srh-118 RNAi-treated nematodes): 0.36; chemotaxis index (srh-119 RNAi-treated nematodes): 0.37; chemotaxis index (srh-120 RNAi-treated nematodes): 0.54; chemotaxis index (srh-122 RNAi-treated nematodes): 0.47; chemotaxis index (srh-123 RNAi-treated nematodes): 0.63; chemotaxis index (srh-125 RNAi-treated nematodes): 0.39; chemotaxis index (srh-128 RNAi-treated nematodes): 0.54; chemotaxis index (srh-129 RNAi-treated nematodes): 0.71; chemotaxis index (srh-130 RNAi-treated nematodes): 0.22; chemotaxis index (srh-214 RNAi-treated nematodes): 0.72; chemotaxis index (srh-216 RNAi-treated nematodes): 0.60; chemotaxis index (srh-217 RNAi-treated nematodes): 0.94; chemotaxis index (srh-220 RNAi-treated nematodes): 0.40; chemotaxis index (srh-222 RNAi-treated nematodes): 0.65; chemotaxis index (srh-223 RNAi-treated nematodes): 0.43; chemotaxis index (srh-227 RNAi-treated nematodes): 0.35; chemotaxis index (srh-229 RNAi-treated nematodes): 0.09; chemotaxis index (srh-233 RNAi-treated nematodes): 0.49; chemotaxis index (srh-235 RNAi-treated nematodes): 0.73; chemotaxis index (srh-236 RNAi-treated nematodes): 0.44; chemotaxis index (srh-239 RNAi-treated nematodes): 0.54; chemotaxis index (srh-241 RNAi-treated nematodes): 0.78; chemotaxis index (srh-243 RNAi-treated nematodes): 0.48; chemotaxis index (srh-244 RNAi-treated nematodes): 0.34; chemotaxis index (srh-247 RNAi-treated nematodes): 0.49; chemotaxis index (srh-250 RNAi-treated nematodes): 0.55; chemotaxis index (srh-251 RNAi-treated nematodes): 0.32; chemotaxis index (srh-252 RNAi-treated nematodes): 0.87; chemotaxis index (srh-258 RNAi-treated nematodes): 0.44; chemotaxis index (srh-261 RNAi-treated nematodes): 0.57; chemotaxis index (srh-264 RNAi-treated nematodes): 0.85; chemotaxis index (srh-266 RNAi-treated nematodes): −0.14; chemotaxis index (srh-274 RNAi-treated nematodes): 0.12; chemotaxis index (srh-275 RNAi-treated nematodes): 0.42; chemotaxis index (srh-276 RNAi-treated nematodes): 0.44; chemotaxis index (srh-277 RNAi-treated nematodes): 0.81; chemotaxis index (srh-279 RNAi-treated nematodes): 0.37; chemotaxis index (srh-281 RNAi-treated nematodes): 0.01; chemotaxis index (srh-282 RNAi-treated nematodes): 0.55; chemotaxis index (srh-283 RNAi-treated nematodes): 0.26; chemotaxis index (srh-284 RNAi-treated nematodes): 0.49; chemotaxis index (srh-291 RNAi-treated nematodes): 0.82; chemotaxis index (srh-292 RNAi-treated nematodes): 0.43; chemotaxis index (srh-293 RNAi-treated nematodes): 0.59; chemotaxis index (srh-297 RNAi-treated nematodes): 0.29; chemotaxis index (srh-298 RNAi-treated nematodes): 0.33; chemotaxis index (srh-308 RNAi-treated nematodes): 0.15
